Experimental data published in US6653301B2, “Pyrazole compounds useful as protein kinase inhibitors” (Vertex Pharmaceuticals Incorporated, priority 2000, dated 2003).

- melting point: 212 to 215 °C
SMILES: COc1cccc(Nc2nc(Nc3cc(C)n[nH]3)c3ccccc3n2)c1 [IIc-56, [2-(3-Methoxyphenylamino)-quinazolin-4-yl]-(5-methyl-2H-pyrazol-3-yl)-amine]
